According to patent publication US10647702B2, “Aryl-substituted imidazoles” (St. Jude Children's Research Hospital, priority 2010, dated 2020):

Assays:
[1] = Liver microsomal stability, mouse; assay type: in vitro ADME; settings: for mouse liver microsome t(½): female CD-1 mouse liver microsomes, 37° C.; for CLint scaled at 19.8 µM: female, CD-1, mouse, liver microsomes, pH 7.4, intrinsic clearance calculated from t1/2, read-out: mouse liver microsome CLint′
Protocol: (§1) 1.582 mL of mouse liver microsome (20 mg/mL, female CD-1 mice, pooled, Fisher Scientific, # NC9567486) was mixed with 0.127 ml of 0.5M EDTA solution and 48.3 ml potassium phosphate buffer (0.1M, pH 7.4, 37° C.) to make 50 ml of mouse liver microsome solution. Human liver microsomal solution was made with human liver microsome (50 pooled mix gender, Fisher Scientific #50-722-516) the same way. 1 volume of 10 mM DMSO compound stock was mixed with 4 volume of acetonitrile to make 2 mM diluted compound stock in DMSO and acetonitrile. 37.83 μL, diluted compound stock was added to 3 mL liver microsomal solution and vortexed to make microsomal solution with compound. 1 ml of liver microsomal solution with compound is added to each well of a master storage plate (pION Inc., MA, #110323). All compounds are in triplicates. Mouse and human liver microsomes were tested side by side on the same plate. 175 μL of each well was dispensed from the master plate into 5 storage plates. For 0 hour time point, 450 pit pre-cooled (4° C.) internal standard (10 μM warfarin in methanol) was added to the first plate before the reaction starts. 5.25 ml of microsome assay solution A (Fisher Scientific, # NC9255727) was combined with 1.05 ml of solution B (Fisher Scientific, # NC9016235) in 14.7 ml of potassium phosphate buffer (0.1 M, pH 7.4). 45 μL of this A+B solution was added to each well of all the 96-well storage plates and mixed with pipette briefly. The plates are sealed, and all plates except 0-hr plate were incubated at 37° C., shaken at a speed of 60 rpm. 0.5 hr, 1 hr, 2 hr and 4 hr time points were taken. At each time point, 450 μL pre-cooled internal standard was added to the plate to quench the reaction. The quenched plate was then centrifuged (model 5810R, Eppendorf, Westbury, N.Y.) at 4000 rpm for 15 minutes. 150 μL supernatant was transferred to a 96-well plate and analyzed by UPLC-MS (Waters Inc., Milford, Mass.). The compounds and internal standard were detected by SIR. The log peak area ratio (compound peak area/internal standard peak area) was plotted vs time (hr) and the slope was determined to calculate the elimination rate constant [k=(−2.303)*slope]. The half life (hr) was calculated as t (1/2)=0.693/k. Intrinsic clearance was calculated as CLint′=(0.693/(t1/2))*(1/microsomal concentration in the reaction solution)*(45 mg microsome/gram liver)*(gram liver/kg b.w.), where microsomal concentration in the reaction solution is 0.5 mg/ml, and gram liver/kg b.w. of CD-1 female mice and human are 52 and 20, respectively.

[2] = Liver microsomal stability, human; assay type: in vitro ADME; settings: for CLint scaled at 19.8 µM: both sexes, human, liver microsomes, pH 7.4, intrinsic clearance calculated from t1/2, read-out: Human liver microsome CLint′; for human liver microsome t(½): pooled human liver microsomes, 37° C.
Protocol: as §1

[3] = Plasma stability, mouse plasma; assay type: in vitro ADME; settings: 37° C., up to 48 hr
Protocol: (§2) Compound stocks were 10 mM in DMSO. The internal standard was 10 μM warfarin in methanol. 1.9 ml mouse plasma (Fisher Scientific, catalog #: NC9050370) or pooled human plasma (Innovative Research Inc., catalog # IPLA-1) was added to the columns of 1, 4, 7 and 10 of a 2 ml 96-well deep well plate (pION Inc., MA, #110023); this was the master plate. 1.9 μl compound stock was added to each well with plasmas and mixed well. Using a multi-channel pipette, 600 μl from the columns of 1, 4, 7 and 10 were taken and added into the rest of the columns (fluids in column 1 added to columns 2 and 3, column 4 into 5 and 6, and so on). From the master plate, 65 μl were taken from each well and added into 8 storage plates (pION Inc., MA, #110323), each for a time point. The storage plates was then incubated at 37° C. and shaken at 60 rpm. Samples were taken at 0 min, 30 min, 1 hr, 2 hr, 4 hr, 8 hr, 24 hr and 48 hr. At each time point, 195 μl internal standard was added to quench the reaction. The plates were then centrifuged at 4000 rpm for 15 min and supernatant was analyzed by UPLC-MS. The compound was detected by SIR and quantitation was based on peak area ratio of test compound vs. the internal standard.

[4] = Plasma stability, pooled human plasma; assay type: in vitro ADME; settings: 37° C., up to 48 hr
Protocol: as §2

PBS stability = assay type: physicochemical; settings: PBS pH 7.4, 37° C., up to 48 hr
Protocol: as §2, with “ml PBS (Mediatech Inc., Manassas, Va.,” for “ml mouse plasma (Fisher Scientific,”, “catalog #21-040-CM)” for “catalog #: NC9050370) or pooled human plasma (Innovative Research Inc., catalog # IPLA-1)”, “with […]” for “with plasmas”, “65 pil” for “65 μl”

## COc1ccc(C2=N[C@@H](c3cccc(Cl)c3)[C@@H](c3ccc(Cl)cc3)N2C(=O)N2CCNC(=O)C2)c(OC(C)C)c1 [SJ000558295-1]
[1]
  mouse liver microsome t(½): 2.17 h
  CLint scaled at 19.8 µM: 24.9 mL/min/kg
[2]
  CLint scaled at 19.8 µM: 12.1 mL/min/kg
  human liver microsome t(½): 1.72 h
[3]
  mPlasma stability t(½): >48 h
[4]
  hPlasma stability t(½): >48 h
PBS stability
  PBS pH 7.4 stability t(½): >48 hr

## COc1ccc(C2=NC(c3cccc(C)c3)C(c3ccc(Cl)cc3)N2C(=O)N2CCNC(=O)C2)c(OC(C)C)c1 (centres unmarked) [SJ000558304-1]
[1]
  mouse liver microsome t(½): 0.73 h
  CLint scaled at 19.8 µM: 73.9 mL/min/kg
[2]
  CLint scaled at 19.8 µM: 14.2 mL/min/kg
  human liver microsome t(½): 1.46 h
[3]
  mPlasma stability t(½): >48 h
[4]
  hPlasma stability t(½): >48 h
PBS stability
  PBS pH 7.4 stability t(½): >48 hr
